These are literature values, as cited in PubChem BioAssay AID1259409 (Chemical Carcinogenesis Research Information System (CCRIS), 2018).

The data set deals with rodent chemically induced tumor inhibition, incidence and multiplicity. Nature of the data set: CCRIS tumor inhibitor studies.

In the case of `C/C1=C\C=C(\C(C)C)[C@@H](O)C/C(C)=C/CC/C(C)=C/CC1`, the “tumour outcome (control, treated, inhibition, significance)” value (Carcinogen: N-METHYL-N-NITROSOUREA, 684-93-5, Dose [Inhibitor]: 0.01% IN DIET BEGINNING 1 WK POST LAST CARCINOGEN DOSE (STUDY DURATION: 26 WK), Route [Inhibitor]: ORAL, Species: RAT, Strain/Sex: CD-FISCHER/FEMALE, Target Tissue: Type of Lesion: LARGE INTESTINE: TUMOR, Dose [Carcinogen]: 2 MG IN WATER 3/WK FOR 3 WK, Promoter: NONE USED) is given as 22/26 (85%), 15/26 (58%), 32%, p<0.01-p<0.05; the “tumour outcome (control, treated, inhibition, significance)” value (Carcinogen: N-METHYL-N-NITROSOUREA, 684-93-5, Dose [Inhibitor]: 0.01% IN DIET BEGINNING WEEK 1 AND CONTINUING FOR DURATION OF STUDY (STUDY DURATION: 26 WK), Route [Inhibitor]: ORAL, Species: RAT, Strain/Sex: CD-FISCHER/FEMALE, Target Tissue: Type of Lesion: LARGE INTESTINE: TUMOR, Dose [Carcinogen]: 2 MG IN WATER 3/WK FOR WEEKS 1-3, Promoter: NONE USED) is 22/26 (85%), 13/26 (50%), 41%, p<0.01-p<0.05; the “tumour outcome (control, treated, inhibition, significance)” value (Carcinogen: N-NITROSOBIS(2-HYDROXYPROPYL)AMINE, 53609-64-6, Dose [Inhibitor]: 0, 0.01% IN DIET FOR 27 WK (STUDY DURATION: 27 WK), Route [Inhibitor]: ORAL, Species: HAMSTER, Strain/Sex: SYRIAN/FEMALE, Target Tissue: Type of Lesion: PANCREAS: TUMOR, Dose [Carcinogen]: 500 MG/KG IN OLIVE OIL 1/WK FOR 27 WK, Promoter: NONE USED) was 11/22 (50%), 4/20 (20%), 60%, p<0.05.

For the compound `O=C(O)c1cc(O)c(O)c(O)c1`, the “tumour outcome (control, treated, inhibition, significance)” value is, setting by setting: (Carcinogen: 7,12-DIMETHYLBENZ[A]ANTHRACENE, 57-97-6, Dose [Inhibitor]: 0, 12 MG 2/WK FOR 30 WK APPLIED 20 MIN PRIOR TO EACH PROMOTER DOSE (STUDY DURATION: 32 WK), Route [Inhibitor]: DERMAL, Species: MOUSE, Strain/Sex: SENCAR/FEMALE, Target Tissue: Type of Lesion: SKIN: PAPILLOMA, Dose [Carcinogen]: 25 NMOL ONCE, Promoter: M-CHLOROPEROXYBENZOIC ACID, 937-14-4) 39%, 3%, 92%, not calculated; (Carcinogen: 7,12-DIMETHYLBENZ[A]ANTHRACENE, 57-97-6, Dose [Inhibitor]: 0, 20 UMOL IN 0.4 ML ACETONE 20 MIN PRIOR TO EACH PROMOTER DOSE (STUDY DURATION: 47 WK), Route [Inhibitor]: DERMAL, Species: MOUSE, Strain/Sex: CF-1/FEMALE, Target Tissue: Type of Lesion: SKIN: CARCINOMA, Dose [Carcinogen]: 100 NMOL IN 0.2 ML ACETONE ONCE) 67%, 28%, 58%, p<0.005; (Carcinogen: 7,12-DIMETHYLBENZ[A]ANTHRACENE, 57-97-6, Dose [Inhibitor]: 0, 20 UMOL IN 0.4 ML ACETONE 20 MIN PRIOR TO EACH PROMOTER DOSE (STUDY DURATION: 47 WK), Route [Inhibitor]: DERMAL, Species: MOUSE, Strain/Sex: CF-1/FEMALE, Target Tissue: Type of Lesion: SKIN: PAPILLOMA, Dose [Carcinogen]: 100 NMOL IN 0.2 ML ACETONE ONCE) 94%, 80%, 15%, not calculated; (Carcinogen: BENZO[A]PYRENE, 50-32-8, Dose [Inhibitor]: 1% AQUEOUS SOLUTION 3/WK FOR A TOTAL OF 80 APPLICATIONS BEGINNING POST CARCINOGEN DOSE (STUDY DURATION: 567-580 D), Route [Inhibitor]: DERMAL, Species: MOUSE, Strain/Sex: CD-1/MALE, FEMALE, Target Tissue: Type of Lesion: SKIN: TUMOR, Dose [Carcinogen]: 0.53-0.6 MG ONCE, Promoter: NONE USED) 15/50 (30%), 15/50 (30%), 0%, not significant.
